The NIST ThermoML archive (doi:10.1016/j.jct.2005.06.015)

Columns and labels:
[1] = refractive index (Na D-line) (dimensionless); xn = mol fraction of the nth substance listed; details: 101 kPa, Liquid, Standard Abbe refractometry
[2] = xn = mol fraction of the nth substance listed; details: 101 kPa, Liquid
[3] = refractive index (Na D-line) (dimensionless); details: 101.33 kPa, Liquid, Standard Abbe refractometry
[4] = 101 kPa, Liquid

ClC(Cl)C(Cl)Cl [1,1,2,2-tetrachloroethane] + CCCCCO
Details	mass density, [2] [kg/m3]	refractive index, [1]
293.15 K, x1 = 0.1015	892.95	1.41801
293.15 K, x1 = 0.2006	969.17	1.42587
293.15 K, x1 = 0.3019	1046.97	1.43392
293.15 K, x1 = 0.4001	1122.53	1.44184
293.15 K, x1 = 0.5005	1199.96	1.45
293.15 K, x1 = 0.5995	1276.74	1.45825
293.15 K, x1 = 0.7005	1355.55	1.46691
293.15 K, x1 = 0.8008	1434.56	1.4757
293.15 K, x1 = 0.9001	1513.69	1.48463
293.15 K, x1 = 1	1594.27	1.49387
303.15 K, x1 = 0.1015	884.5	1.41395
303.15 K, x1 = 0.2006	959.53	1.42166
303.15 K, x1 = 0.3019	1036.17	1.42959
303.15 K, x1 = 0.4001	1110.64	1.43735
303.15 K, x1 = 0.5005	1186.94	1.44547
303.15 K, x1 = 0.5995	1262.57	1.45363
303.15 K, x1 = 0.7005	1340.1	1.46218
303.15 K, x1 = 0.8008	1417.76	1.47093
303.15 K, x1 = 0.9001	1495.54	1.47979
303.15 K, x1 = 1	1574.85	1.48887

CCCCCCCCO [octan-1-ol]
Details	mass density, [4] [kg/m3]	refractive index, [3]
293.15 K	825	1.42941
303.15 K	818.09	1.42563

ClC(Cl)C(Cl)Cl [1,1,2,2-tetrachloroethane] + CCCCCCO
Details	mass density, [2] [kg/m3]	refractive index, [1]
293.15 K, x1 = 0.1003	886.07	1.4247
293.15 K, x1 = 0.2011	955.51	1.43135
293.15 K, x1 = 0.3006	1025.9	1.438
293.15 K, x1 = 0.4004	1098.46	1.44486
293.15 K, x1 = 0.5	1173.27	1.45201
293.15 K, x1 = 0.6009	1251.57	1.45957
293.15 K, x1 = 0.7002	1331.64	1.46735
293.15 K, x1 = 0.8004	1415.64	1.47556
293.15 K, x1 = 0.9011	1503.8	1.48444
293.15 K, x1 = 1	1594.27	1.49387
303.15 K, x1 = 0.1003	877.89	1.42076
303.15 K, x1 = 0.2011	946.24	1.42723
303.15 K, x1 = 0.3006	1015.59	1.43378
303.15 K, x1 = 0.4004	1087.1	1.4405
303.15 K, x1 = 0.5	1160.79	1.4475
303.15 K, x1 = 0.6009	1237.85	1.45495
303.15 K, x1 = 0.7002	1316.58	1.46264
303.15 K, x1 = 0.8004	1399.12	1.47082
303.15 K, x1 = 0.9011	1485.78	1.4796
303.15 K, x1 = 1	1574.85	1.48887

CCCCCCCCO [octan-1-ol] + ClC(Cl)C(Cl)Cl
x2 = 0
Details	mass density, [2] [kg/m3]	refractive index, [1]
293.15 K	825	1.42941
303.15 K	818.09	1.42563

ClC(Cl)C(Cl)Cl [1,1,2,2-tetrachloroethane] + CCCCCCCCO
Details	mass density, [2] [kg/m3]	refractive index, [1]
293.15 K, x1 = 0.1028	879.91	1.43403
293.15 K, x1 = 0.1967	933.27	1.43826
293.15 K, x1 = 0.2997	995.8	1.44321
293.15 K, x1 = 0.4005	1061.47	1.44845
293.15 K, x1 = 0.501	1132.1	1.45416
293.15 K, x1 = 0.6	1207.5	1.46034
293.15 K, x1 = 0.6999	1290.57	1.46723
293.15 K, x1 = 0.7998	1381.66	1.47492
293.15 K, x1 = 0.9007	1483.42	1.48379
293.15 K, x1 = 1	1594.27	1.49387
303.15 K, x1 = 0.1028	872.01	1.43011
303.15 K, x1 = 0.1967	924.42	1.43419
303.15 K, x1 = 0.2997	985.92	1.43892
303.15 K, x1 = 0.4005	1050.64	1.44404
303.15 K, x1 = 0.501	1120.29	1.44968
303.15 K, x1 = 0.6	1194.6	1.45579
303.15 K, x1 = 0.6999	1276.31	1.46262
303.15 K, x1 = 0.7998	1365.71	1.47026
303.15 K, x1 = 0.9007	1465.56	1.47898
303.15 K, x1 = 1	1574.85	1.48887

CCCCCCO [hexan-1-ol]
Details	mass density, [4] [kg/m3]	refractive index, [3]
293.15 K	818.72	1.41807
303.15 K	811.73	1.41423

CCCCCO [pentan-1-ol]
Details	mass density, [4] [kg/m3]	refractive index, [3]
293.15 K	814.72	1.40976
303.15 K	807.6	1.40592

ClC(Cl)C(Cl)Cl [1,1,2,2-tetrachloroethane] + CCCCCCCCCCO
Details	mass density, [2] [kg/m3]	refractive index, [1]
293.15 K, x1 = 0.1023	874.88	1.44019
293.15 K, x1 = 0.2004	922	1.44342
293.15 K, x1 = 0.3006	974.95	1.44704
293.15 K, x1 = 0.4005	1033.5	1.45108
293.15 K, x1 = 0.5009	1099.29	1.45575
293.15 K, x1 = 0.6001	1172.37	1.46097
293.15 K, x1 = 0.6999	1255.81	1.46711
293.15 K, x1 = 0.8	1351.62	1.47434
293.15 K, x1 = 0.901	1464.04	1.48303
293.15 K, x1 = 1	1594.27	1.49387
303.15 K, x1 = 0.1023	867.03	1.43656
303.15 K, x1 = 0.2004	913.42	1.43969
303.15 K, x1 = 0.3006	965.57	1.44313
303.15 K, x1 = 0.4005	1023.2	1.44706
303.15 K, x1 = 0.5009	1087.89	1.45152
303.15 K, x1 = 0.6001	1159.72	1.45665
303.15 K, x1 = 0.6999	1241.75	1.46263
303.15 K, x1 = 0.8	1336.02	1.46974
303.15 K, x1 = 0.901	1446.7	1.47826
303.15 K, x1 = 1	1574.85	1.48887

CCCCCCCO [heptan-1-ol]
Details	mass density, [4] [kg/m3]	refractive index, [3]
293.15 K	822.14	1.42397
303.15 K	815.41	1.42047

CCCCCO [pentan-1-ol] + ClC(Cl)C(Cl)Cl
x2 = 0
Details	mass density, [2] [kg/m3]	refractive index, [1]
293.15 K	814.72	1.40976
303.15 K	807.6	1.40592

CCCCCCCCCCO [decan-1-ol]
Details	mass density, [4] [kg/m3]	refractive index, [3]
293.15 K	829.84	1.43694
303.15 K	822.83	1.43364

CCCCCCCO [heptan-1-ol] + ClC(Cl)C(Cl)Cl
x2 = 0
Details	mass density, [2] [kg/m3]	refractive index, [1]
293.15 K	822.14	1.42397
303.15 K	815.41	1.42047

CCCCCCO [hexan-1-ol] + ClC(Cl)C(Cl)Cl
x2 = 0
Details	mass density, [2] [kg/m3]	refractive index, [1]
293.15 K	818.72	1.41807
303.15 K	811.73	1.41423

ClC(Cl)C(Cl)Cl [1,1,2,2-tetrachloroethane] + CCCCCCCO
Details	mass density, [2] [kg/m3]	refractive index, [1]
293.15 K, x1 = 0.1022	883.03	1.42952
293.15 K, x1 = 0.1995	943.76	1.43494
293.15 K, x1 = 0.3002	1009.72	1.4406
293.15 K, x1 = 0.4008	1079.02	1.44661
293.15 K, x1 = 0.5001	1151.23	1.45297
293.15 K, x1 = 0.599	1227.43	1.45976
293.15 K, x1 = 0.6996	1310.04	1.46717
293.15 K, x1 = 0.7999	1398.24	1.47525
293.15 K, x1 = 0.9015	1494.17	1.48421
293.15 K, x1 = 1	1594.27	1.49387
303.15 K, x1 = 0.1022	875.27	1.42581
303.15 K, x1 = 0.1995	934.97	1.43106
303.15 K, x1 = 0.3002	999.87	1.43653
303.15 K, x1 = 0.4008	1068.12	1.44244
303.15 K, x1 = 0.5001	1139.25	1.44861
303.15 K, x1 = 0.599	1214.28	1.45521
303.15 K, x1 = 0.6996	1295.52	1.46254
303.15 K, x1 = 0.7999	1382.11	1.4705
303.15 K, x1 = 0.9015	1476.3	1.47937
303.15 K, x1 = 1	1574.85	1.48887

CCCCCCCCCCO [decan-1-ol] + ClC(Cl)C(Cl)Cl
x2 = 0
Details	mass density, [2] [kg/m3]	refractive index, [1]
293.15 K	829.84	1.43694
303.15 K	822.83	1.43364

ClC(Cl)C(Cl)Cl [1,1,2,2-tetrachloroethane]
Details	mass density, [4] [kg/m3]	refractive index, [3]
293.15 K	1594.27	1.49387
303.15 K	1574.85	1.48887
